According to ChEMBL document CHEMBL3351876 (Eur J Med Chem, 2014):

Columns and labels:
Plasmodium falciparum = assay: Antimalarial activity against chloroquine-resistant ring stage Plasmodium falciparum W2 assessed as parasitemia after 48 hrs by flow cytometry; assay type: functional, organism-based; conditions: W2, 48 h
HeLa = assay: Cytotoxicity against human HeLa cells after 24 hrs by trypan blue exclusion assay; assay type: cell-based
Heme = assay: Binding affinity to heme assessed as inhibition of beta-haemozoin formation by UV-vis spectra analysis
[1] = Selectivity index, ratio of CC50 for human HeLa cells to IC50 for chloroquine-resistant ring stage Plasmodium falciparum W2; assay type: functional

In the case of CCCCNC(=S)N[C@@H]1C(=O)N(c2ccc(C)cc2)[C@@H]1/C=C/c1ccccc1, the IC50 (Plasmodium falciparum) is reported as > 10 µM.
In the case of Cc1ccc(N2C(=O)[C@@H](NC(=S)NCC(C)C)[C@H]2/C=C/c2ccccc2)cc1, the IC50 (Plasmodium falciparum) is reported as > 10 µM.
With Cc1ccc(NC(=S)N[C@@H]2C(=O)N(c3ccc(C)cc3)[C@@H]2/C=C/c2ccccc2)cc1 the IC50 (Plasmodium falciparum) was > 10 µM.
With Cc1ccc(N2C(=O)[C@@H](NC(=S)NC3CCCCC3)[C@H]2/C=C/c2ccccc2)cc1 the IC50 (Plasmodium falciparum) was > 10 µM.
In the case of Cc1ccc(N2C(=O)[C@@H](NC(=S)Nc3ccc(F)cc3)[C@H]2/C=C/c2ccccc2)cc1, the IC50 (Plasmodium falciparum) is reported as > 10 µM.
In the case of CCCCN1C(=O)/C(=C/C=C/c2ccccc2)NC1=S, the IC50 (Plasmodium falciparum) is reported as > 10 µM.
With CC(C)CN1C(=O)/C(=C/C=C/c2ccccc2)NC1=S the IC50 (Plasmodium falciparum) was > 10 µM.
With Cc1ccc(N2C(=O)/C(=C/C=C/c3ccccc3)NC2=S)cc1 the IC50 (Plasmodium falciparum) was > 10 µM.
For O=C1/C(=C/C=C/c2ccccc2)NC(=S)N1C1CCCCC1, the IC50 (Plasmodium falciparum) was > 10 µM.
With O=C1/C(=C/C=C/c2ccccc2)NC(=S)N1c1ccc(F)cc1 the IC50 (Plasmodium falciparum) was > 10 µM.
In the case of Cc1ccc(N2C(=O)[C@H](NC(=S)Nc3ccnc4cc(Cl)ccc34)[C@@H]2/C=C/c2ccccc2)cc1, the IC50 (Plasmodium falciparum) is reported as > 10 µM.
O=C1[C@H](NC(=S)Nc2ccnc3cc(Cl)ccc23)[C@H](/C=C/c2ccccc2)N1C1CCCCC1 showed an IC50 (Plasmodium falciparum) of 6.13 µM.
Compound O=C1[C@H](NC(=S)Nc2ccnc3cc(Cl)ccc23)[C@H](/C=C/c2ccccc2)N1c1ccc(Cl)cc1 has an IC50 (Plasmodium falciparum) of 8.75 µM.
In the case of O=C1[C@H](NC(=S)Nc2ccnc3cc(Cl)ccc23)[C@H](/C=C/c2ccccc2)N1c1ccc(F)cc1, the IC50 (Plasmodium falciparum) is reported as > 10 µM.
With O=C1[C@H](NC(=S)Nc2ccnc3cc(Cl)ccc23)[C@H](/C=C/c2ccccc2)N1c1ccccc1 the IC50 (Plasmodium falciparum) was > 10 µM.
For O=C1[C@H](NC(=S)Nc2ccnc3cc(Cl)ccc23)[C@H](/C=C/c2ccccc2)N1c1ccc(Br)cc1, the IC50 (Plasmodium falciparum) was 5.72 µM.
With O=C1/C(=C/C=C/c2ccccc2)NC(=S)N1CCNc1ccnc2cc(Cl)ccc12 the IC50 (HeLa) was 72 µM, the IC50 (Heme) was 13.9 µM and the “Ratio IC50” value [1] was 1807. For the same compound, the IC50 (Plasmodium falciparum) was 0.0398 µM.
With O=C1/C(=C/C=C/c2ccccc2)NC(=S)N1CCCNc1ccnc2cc(Cl)ccc12 the IC50 (HeLa) was 91 µM, the IC50 (Heme) was 19.9 µM and the “Ratio IC50” value [1] was 2139. It also gave an IC50 (Plasmodium falciparum) of 0.0425 µM.
For O=C1/C(=C/C=C/c2ccccc2)NC(=S)N1CCCCNc1ccnc2cc(Cl)ccc12, the IC50 (HeLa) was > 100 µM, the IC50 (Heme) was 28.4 µM and the “Ratio IC50” value [1] was >1747. For the same compound, the IC50 (Plasmodium falciparum) was 0.0572 µM.
O=C1/C(=C/C=C/c2ccccc2)NC(=S)N1CCCCCCNc1ccnc2cc(Cl)ccc12 gave an IC50 (Plasmodium falciparum) of 0.387 µM.
For NCCN1C(=O)/C(=C/C=C/c2ccccc2)NC1=S, the IC50 (Plasmodium falciparum) was > 10 µM.
